From US5705487A, “Antithrombotic agents” (priority 1995, dated 1998)
Counter-ions that a name gives are not always drawn.

What was measured:
Format in all cases: biochemical
Human Thrombin = Human Thrombin (Homo sapiens, UniProt P00734); experiment: Inhibition of the amidase activity of thrombin (Kass); conditions: chromogenic substrate N-benzoyl-Phe-Val-Arg-p-nitroanilide; mean over range of concentrations
factor Xa = biological target: T1, factor Xa (Homo sapiens, UniProt P00742); experiment: Kass, factor Xa chromogenic substrate assay; conditions: substrate N-Benzoyl-Ile-Glu-Gly-Arg-p-nitroanilide
T1 construct: Human factors X, Xa, IXa, XIa, and XIIa are purchased; purchased Enzyme Research Laboratories, South Bend, Ind
T1 sequence (P00742 235-488 limits assumed): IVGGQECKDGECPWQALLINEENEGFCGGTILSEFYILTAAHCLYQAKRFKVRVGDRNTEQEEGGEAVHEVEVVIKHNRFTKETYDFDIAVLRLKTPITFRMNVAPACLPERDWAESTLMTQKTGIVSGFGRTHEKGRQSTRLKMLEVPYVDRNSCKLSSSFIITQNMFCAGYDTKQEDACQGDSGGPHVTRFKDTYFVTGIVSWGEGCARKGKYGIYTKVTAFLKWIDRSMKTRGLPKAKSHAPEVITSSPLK
T1 sequence (P00742 41-179 partner limits assumed): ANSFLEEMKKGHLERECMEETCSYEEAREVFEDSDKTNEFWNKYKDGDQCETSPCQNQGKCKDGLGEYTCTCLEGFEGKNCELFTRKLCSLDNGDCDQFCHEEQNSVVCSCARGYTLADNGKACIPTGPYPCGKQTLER
Method: (§3) By substantially following the procedures described above for human thrombin, and using other human blood coagulation system serine proteases and proteases of the fibrinolytic system with the appropriate chromogenic substrates, identified below, selectivity of the compounds of the present invention with respect to the coagulation factor serine proteases and with respect to the fibrinolytic system serine proteases are evaluated as well as their substantial lack of interference with serine proteases of the fibrinolytic system.
(§4) Chromogenic substrates: N-Benzoyl-Ile-Glu-Gly-Arg-p-nitroanilide (for factor Xa); N-Cbz-D-Arg-Gly-Arg-p-nitroanilide (for factor IXa assay as the factor Xa substrate); Pyroglutamyl-Pro-Arg-p-nitroanilide (for Factor XIa and for aPC); H-D-Pro-Phe-Arg-p-nitroanilide (for factor XIIa); and Pyroglutamyl-Gly-Arg-p-nitroanilide (for urokinase); are purchased from KabiVirum, Stockholm, Sweden, or from Midwest Biotech, Fishers, Ind. Bovine trypsin is purchased from Worthington Biochemicals, Freehold, N.J., and human plasma kallikrein from Kabi Vitrum, Stockholm, Sweden. […] N-Benzoyl-Phe-Val-Arg-p-nitroanilide, the substrate for human thrombin and for trypsin, is synthesized according to procedures described above for the compounds of the present invention, using known methods of peptide coupling from commercially available reactants or purchased from Midwest Biotech, Fishers, Ind.

Bovine trypsin = biological target: T2, Bovine trypsin (Bos taurus, UniProt P00760); experiment: Kass, trypsin chromogenic substrate assay; conditions: substrate N-Benzoyl-Phe-Val-Arg-p-nitroanilide
T2 construct: Bovine trypsin is purchased from Worthington Biochemicals; purchased Worthington Biochemicals, Freehold, N.J
T2 sequence (P00760 24-246): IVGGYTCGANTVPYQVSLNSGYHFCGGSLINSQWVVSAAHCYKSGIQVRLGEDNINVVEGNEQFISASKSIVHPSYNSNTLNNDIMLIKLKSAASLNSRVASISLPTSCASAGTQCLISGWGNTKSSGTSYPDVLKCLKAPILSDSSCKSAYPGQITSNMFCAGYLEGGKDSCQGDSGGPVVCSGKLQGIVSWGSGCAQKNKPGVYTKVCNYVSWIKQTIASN
Method: as §3, §4

Human plasmin = biological target: T3, Human plasmin (Homo sapiens, UniProt P00747); experiment: Kass, plasmin chromogenic substrate assay; conditions: substrate H-D-Val-Leu-Lys-p-nitroanilide
T3 construct: Human plasmin is purchased from Boehringer Mannheim; purchased Boehringer Mannheim, Indianapolis, Ind
T3 sequence (P00747 581-810 limits assumed): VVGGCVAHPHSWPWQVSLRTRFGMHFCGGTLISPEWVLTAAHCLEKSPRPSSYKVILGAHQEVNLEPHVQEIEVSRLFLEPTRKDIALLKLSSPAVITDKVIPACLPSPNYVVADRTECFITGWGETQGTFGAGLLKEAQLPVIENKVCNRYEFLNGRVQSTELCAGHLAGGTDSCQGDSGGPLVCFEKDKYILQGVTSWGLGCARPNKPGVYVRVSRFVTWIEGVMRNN
T3 sequence (P00747 97-580 partner limits assumed): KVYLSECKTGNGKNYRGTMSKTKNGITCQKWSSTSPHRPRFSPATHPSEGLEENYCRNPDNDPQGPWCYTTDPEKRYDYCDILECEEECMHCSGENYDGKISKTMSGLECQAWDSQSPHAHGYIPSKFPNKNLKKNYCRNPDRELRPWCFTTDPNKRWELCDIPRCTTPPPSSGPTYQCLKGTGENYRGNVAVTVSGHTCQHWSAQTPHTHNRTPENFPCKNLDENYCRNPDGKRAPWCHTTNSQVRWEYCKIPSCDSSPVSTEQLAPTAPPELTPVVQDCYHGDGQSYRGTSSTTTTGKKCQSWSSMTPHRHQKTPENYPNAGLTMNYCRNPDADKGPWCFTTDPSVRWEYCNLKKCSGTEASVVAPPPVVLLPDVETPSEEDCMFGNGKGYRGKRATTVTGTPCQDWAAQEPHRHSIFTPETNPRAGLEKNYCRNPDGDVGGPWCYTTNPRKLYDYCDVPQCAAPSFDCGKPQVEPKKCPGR
Method: as §3
(§5) Human plasmin is purchased from Boehringer Mannheim, Indianapolis, Ind.; nt-PA is purchased as single chain activity reference from American Diagnostica, Greenwich, Conn.; modified-t-PA6 (mt-PA6) is prepared at Eli Lilly and Company by procedure known in the art (See, Burck, et al., J. Biol. Chem., 265, 5120-5177 (1990). Plasmin chromogenic substrate H-D-Val-Leu-Lys-p-nitroanilide and tissue plasminogen activator (t-PA) substrate H-D-Ile-Pro-Arg-p-nitroanilide are purchased from Kabi Vitrum, Stockholm, Sweden.

Human Plasma [1] = experiment: Human plasma anticoagulation, thrombin time (TT); conditions: concentration required to double the clotting time
Method: (§1) Dog plasma and rat plasma is obtained from conscious mixed-breed hounds (either sex, Hazelton-LRE, Kalamazoo, Mich., U.S.A.) or from anesthetized male Sprague-Dawley rats (Harlan Sprague-Dawley, Inc., Indianapolis, Ind., U.S.A.) by venipuncture into 3.8 percent citrate. Fibrinogen is prepared from in-date ACD human blood as the fraction I-2 according to previous procedures and specifications. […] Human fibrinogen is also purchased as 98 percent pure/plasmin free from American Diagnostica, Greenwich, Conn. Coagulation reagents ACTIN, Thromboplastin, and Human plasma are from Baxter Healthcare Corp., Dade Division, Miami, Fla. Bovine thrombin from Parke-Davis ([…], Mich.) is used for coagulation assays in plasma.
(§2) Coagulation assay procedures are as previously described. […] A CoAScreener coagulation instrument (American LABor, Inc.) is used for all coagulation assay measurements. The prothrombin time (PT) is measured by adding 0.05 mL saline and 0.05 mL Thromboplastin-C reagent to 0.05 mL test plasma. The activated partial thromboplastin time (APTT) is measured by incubation of 0.05 mL test plasma with 0.05 mL Actin reagent for 120 seconds followed by 0.05 mL CaCl2 (0.02M). The thrombin time (TT) is measured by adding 0.05 mL saline and 0.05 mL thrombin (10 NIH units/mL) to 0.05 mL test plasma. The compounds of Formula I are added to human or animal plasma over a wide range of concentrations to determine prolongation effects on the APTT, PT, and TT assays. Linear extrapolations are performed to estimate the concentrations required to double the clotting time for each assay.

Human Plasma [2] = experiment: Human plasma anticoagulation, activated partial thromboplastin time (APTT); conditions: concentration required to double the clotting time
Method: as §1, §2

Human Plasma [3] = experiment: Human plasma anticoagulation, prothrombin time (PT); conditions: concentration required to double the clotting time
Method: as §1, §2

t-PA = biological target: T4, t-PA (Homo sapiens, UniProt P00750); experiment: Kass, t-PA chromogenic substrate assay; conditions: substrate H-D-Ile-Pro-Arg-p-nitroanilide
T4 construct: purchased American Diagnostica, Greenwich, Conn
T4 sequence (P00750 36-562): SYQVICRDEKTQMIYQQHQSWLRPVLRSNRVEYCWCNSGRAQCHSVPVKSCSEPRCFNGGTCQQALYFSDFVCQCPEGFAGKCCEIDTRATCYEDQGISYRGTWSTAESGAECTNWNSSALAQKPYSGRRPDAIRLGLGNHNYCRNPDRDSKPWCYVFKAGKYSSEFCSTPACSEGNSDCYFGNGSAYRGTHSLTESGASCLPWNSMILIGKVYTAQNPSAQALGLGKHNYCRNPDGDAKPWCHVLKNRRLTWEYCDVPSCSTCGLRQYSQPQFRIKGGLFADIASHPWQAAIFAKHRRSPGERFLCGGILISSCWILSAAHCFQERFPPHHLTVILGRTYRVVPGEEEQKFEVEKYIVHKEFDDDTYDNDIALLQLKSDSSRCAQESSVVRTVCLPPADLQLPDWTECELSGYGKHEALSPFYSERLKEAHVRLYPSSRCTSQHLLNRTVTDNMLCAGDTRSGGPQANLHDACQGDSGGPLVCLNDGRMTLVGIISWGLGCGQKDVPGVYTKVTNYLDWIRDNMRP
Method: as §3, §5

Compound | Kass × 10^6 (L/mole) Human Thrombin (Human Thrombin) | Kass × 10^6 (L/mole) Xa (factor Xa) | Kass × 10^6 (L/mole) Trypsin (Bovine trypsin) | Kass × 10^6 (L/mole) Plasmin (Human plasmin) | Human Plasma Anticoagulation 2x Clotting time TT (Human Plasma [1]) | Human Plasma Anticoagulation 2x Clotting time APTT (Human Plasma [2]) | Human Plasma Anticoagulation 2x Clotting time PT (Human Plasma [3]) | Kass × 10^6 (L/mole) t-PA (t-PA)
N=C(N)Nc1ccc(CCNC(=O)[C@@H]2CCCN2C(=O)[C@@H]2NCC[C@@H]3CCCC[C@@H]32)cc1 [Example 39, D-1-Piq-Pro-p-NHCH2 CH2 C6 H4 NHC (NH) NH2.2HCl] | 0.12 × 10^6 L/mole | < 0.001 × 10^6 L/mole | < 0.02 × 10^6 L/mole | < 0.001 × 10^6 L/mole | 5,300 ng/mL | 69,200 ng/mL | 78,600 ng/mL | 
N=C(N)Nc1cccc(CNC(=O)[C@@H]2CCCN2C(=O)[C@@H]2NCC[C@@H]3CCCC[C@@H]32)c1 [Example 40, D-1-Piq-Pro-m-NHCH2 C6 H4 NHC(NH)NH2.2HCl] | 0.03 × 10^6 L/mole | < 0.001 × 10^6 L/mole | 0.01 × 10^6 L/mole | < 0.001 × 10^6 L/mole | 35,100 ng/mL | > 91,000 ng/mL | > 91,000 ng/mL | 
CCS(=O)(=O)N[C@H](Cc1ccccc1)C(=O)N1CCC[C@H]1C(=O)NCc1cccc(C(=N)N)c1 [Example 24, EtSO2 -D-Phe-Pro-m-NHCH2 -C6 H4 C(=NH)NH2.HCl] |  |  |  | < 0.001 × 10^6 L/mole |  |  |  | < 0.001 × 10^6 L/mole
O=C(O)CN[C@H](CC1CCCCC1)C(=O)N1CCC[C@H]1C(=O)NCC1CCNCC1 [Example 53, HO2 CCH2 -D-Cha-Pro-4-NHCH2 -piperidine.HCl] |  |  |  | < 0.001 × 10^6 L/mole |  |  |  | < 0.001 × 10^6 L/mole
N=C(N)Nc1ccc(CNC(=O)[C@@H]2CCCN2C(=O)[C@@H]2NCC[C@@H]3CCCC[C@@H]32)cc1 [Example 38, D-1-Piq-Pro-p-NHCH2 C6 H4 NHC(NH)NH2.2HCl] | 1.1 × 10^6 L/mole | < 0.001 × 10^6 L/mole | 0.07 × 10^6 L/mole | < 0.001 × 10^6 L/mole | 540 ng/mL | 6,100 ng/mL | 11,100 ng/mL | 
Cl.N=C(N)c1ccc(CNC(=O)CN(CCc2ccccc2)C(=O)CNCC(=O)O)cc1 [Example 89, HOOCCH2 -Gly-N-C6 H5 CH2 CH2 Gly-p-NHCH2 C6 H4 C(NH)NH2.HCl] | 0.14 × 10^6 L/mole | 0.071 × 10^6 L/mole |  |  | 570 ng/mL | 51,000 ng/mL | 37,000 ng/mL | 
N=C(N)c1ccc(CNC(=O)[C@@H]2CCCN2C(=O)[C@@H](CCC2CCCCC2)NCC(=O)O)cc1 [Example 88, HOOCCH2 -D-hCha-Pro-p-NHCH2 C6 H4 C(NH)NH2.HCl] | 410 × 10^6 L/mole | 3.9 × 10^6 L/mole |  |  | 4 ng/mL | 100 ng/mL | 200 ng/mL | 
N=C(N)NCc1ccc(CNC(=O)[C@@H]2CCCN2C(=O)[C@H](N)Cc2ccccc2)cc1 [Example 9, D-Phe-Pro-p-NHCH2 -C6 H4 CH2 NHC(NH)NH2.2TFA] |  |  |  |  |  |  |  | < 0.001 × 10^6 L/mole
CCC(CC)C(=O)N[C@@H](CCS(C)(=O)=O)C(=O)N1CCC[C@H]1C(=O)NCc1ccc(C(=N)N)cc1 [Example 91, (C2 H5)2 CHCO-Met(O2)-Pro-p-NHCH2 C6 H4 C(NH)NH2.HCl] | 3.6 × 10^6 L/mole | 0.007 × 10^6 L/mole |  |  | 63 ng/mL | 3,000 ng/mL | 3,500 ng/mL | 
HOOCCH2 -D-hPhe-Pro-p-NHCH2 C6 H4 C(NH)NH2.HCl [Example 87] | 30 × 10^6 L/mole | 2.5 × 10^6 L/mole |  |  | 9 ng/mL | 260 ng/mL | 310 ng/mL | 
NCC1CCC(CNC(=O)[C@@H]2CCCN2C(=O)[C@@H](CC2CCCCC2)NCC(=O)O)CC1 (stereo partly drawn) [Example 79, HO2 CCH2 -D-Cha-Pro-4-NHCH2 C6 H10 CH2 NH2.HCl] | 2.0 × 10^6 L/mole |  | 0.24 × 10^6 L/mole |  | 140 ng/mL | 1,700 ng/mL | 2,400 ng/mL | 
CCS(=O)(=O)N[C@H](CC1CCCCC1)C(=O)N1CCC[C@H]1C(=O)NCc1ccc(CN)cc1 [Example 81, EtSO2 -D-Cha-Pro-4-NHCH2 C6 H4 CH2 NH2.HCl] | 5.3 × 10^6 L/mole |  | 2.1 × 10^6 L/mole |  | 110 ng/mL | 1,500 ng/mL | 2,700 ng/mL | 
N=C(N)Nc1cccc(CCNC(=O)[C@@H]2CCCN2C(=O)[C@@H]2NCC[C@@H]3CCCC[C@@H]32)c1 [Example 41, D-1-Piq-Pro-m-NHCH2 CH2 C6 H4 NHC(NH)NH2.2HCl] | 0.01 × 10^6 L/mole | < 0.001 × 10^6 L/mole | < 0.001 × 10^6 L/mole | < 0.001 × 10^6 L/mole | 82,200 ng/mL | > 91,000 ng/mL | > 91,000 ng/mL | 
Cl.Nc1ccc(CNC(=O)[C@@H]2CCCN2C(=O)[C@@H](CC2CCCCC2)NCC(=O)O)c(F)c1 [Example 64, HO2 CCH2 -D-Cha-Pro-4-NHCH2 -3-F-C6 H3 NH2.HCl] | 15 × 10^6 L/mole | 0.01 × 10^6 L/mole |  |  | 23 ng/mL | 900 ng/mL | 650 ng/mL | 
N=C(N)c1ccc(CNC(=O)[C@@H]2CCCN2C(=O)[C@@H](CC2CCCCC2)NCC(=O)O)nc1 [Example 66, HO2 CCH2 -D-Cha-Pro-2-NHCH2 -5-amidinopyridine.HCl] | 120 × 10^6 L/mole |  | 4.6 × 10^6 L/mole |  | 7.9 ng/mL | 180 ng/mL | 270 ng/mL | 
N=C(N)c1ccc(CNC(=O)[C@@H]2CCCN2C(=O)[C@@H](CC2CCCCC2)NCCCC(=O)O)cc1 [Example 85, HOOCCH2 CH2 CH2 -D-Cha-Pro-p-NHCH2 C6 H4 C(NH)NH2.HCl] | 265 × 10^6 L/mole |  | 30.8 × 10^6 L/mole |  | 4.9 ng/mL | 100 ng/mL | 197 ng/mL | 
CCS(=O)(=O)N[C@H](Cc1ccccc1)C(=O)N1CCC[C@H]1C(=O)NCCc1cccc(N=C(N)N)c1.Cl [Example 37, EtSO2 -D-Phe-Pro-m-NHCH2 CH2 C6 H4 NHC(NH)NH2.HCl] | 0.02 × 10^6 L/mole | < 0.009 × 10^6 L/mole |  |  | > 9,000 ng/mL | > 9,000 ng/mL | > 9,000 ng/mL | 
CCS(=O)(=O)N[C@H](CC1CCCCC1)C(=O)N1CCC[C@H]1C(=O)NCc1ccnc(N)c1.Cl [Example 83, EtSO2 -D-Cha-Pro-4-NHCH2 -2-aminopyridine.HCl] | 2.4 × 10^6 L/mole |  | 0.03 × 10^6 L/mole |  | 91 ng/mL | 1,000 ng/mL | 1,300 ng/mL | 
